Test results published in ChEMBL document CHEMBL1201862, “PubChem BioAssay data set” (2004).
Activity calls are given as the source filed them.

What was measured:
[1] = biological target: T1, E3 ubiquitin-protein ligase XIAP (Homo sapiens, UniProt P98170); assay: SAR analysis of Antagonists of IAP-family anti-apoptotic proteins. [Related pubchem assays (depositor defined):AID1018, AID1449, AID1513, AID1514, AID1638]
[2] = biological target: T1, E3 ubiquitin-protein ligase XIAP; assay: SAR analysis of Antagonists of XIAP-Bir3 domain of IAP-family anti-apoptotic proteins. [Related pubchem assays (depositor defined):AID1018, AID1449, AID1513, AID1514, AID1638]
[3] = biological target: Signal transducer and activator of transcription 1-alpha/beta (Homo sapiens, UniProt P42224); assay: STAT3 inhibitors, late-stage profile, late-stage follow-up, cell-based, STAT1 panel, qPCR, cytotoxicity, panel member STAT1 Inhibition (AID 2078)
[4] = biological target: Signal transducer and activator of transcription 3 (Homo sapiens, UniProt P40763); assay: STAT3 inhibitors, late-stage profile, late-stage follow-up, cell-based, STAT1 panel, qPCR, cytotoxicity, panel member STAT3 Inhibition (AID 2078)
[5] = biological target: Intestinal-type alkaline phosphatase (Homo sapiens, UniProt P09923); assay: human intestinal alkaline phosphatase activators, dose response, biochemical, luminescence, uHTS hits (AID 463120); format: functional
[6] = biological target: Luciferin 4-monooxygenase (Photinus pyralis, UniProt P08659); assay: firefly luciferase enzyme inhibitors, dose response, biochemical, luminescence (AID 1891)
[7] = (§1) Counterscreen for antagonists of the orexin 1 receptor (OX1R; HCRTR1): Fluorescence-based cell-based high throughput dose response assay to identify antagonists of the parental CHO cell line. [Related pubchem assays (depositor defined):AID434989, AID435008, AID463079, AID485270, AID492963, AID492964, AID492965, AID493232, AID504699, AID504701]; format: functional
[8] = biological target: T2, Orexin/Hypocretin receptor type 1 (Homo sapiens, UniProt O43613); assay: (§2) Fluorescence-based cell-based high throughput dose response assay for antagonists of the orexin 1 receptor (OX1R; HCRTR1). [Related pubchem assays (depositor defined):AID434989, AID435008, AID463079, AID485270, AID492963, AID492964, AID492965, AID493232, AID504717, AID504718]; format: functional
[9] = Luminescence Cell-Based Dose Confirmation HTS to Identify Inhibitors of Platelet Dense Granule Release. [Related pubchem assays: 1663 (Primary HTS), 1678 (Summary of Project)]; format: functional
CHO-K1 = assay: as §1, with “Homogeneous time resolved fluorescence (HTRF)-based” for “Fluorescence-based”, “cell-based” for “cell-based high throughput”, “CHO-K1” for “CHO”; format: functional; settings: Cricetulus griseus;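 note: potency for inhibition of ATP-stimulated IP1 production as antagonists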
[10] = enhancers of respiration in Yfh1-depleted yeast, dose response, Friedreich's ataxia, plus single-dose screen (AID 1465); format: functional;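 note: yeast depleted of Yfh1p frataxin homolog grown on glycerol needing respiration; WST-1 tetrazolium dye reduction as measure of cellular dehydrogenase metabolic activity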
[11] = biological target: T2, Orexin/Hypocretin receptor type 1; assay: as §2, with “Homogeneous Time Resolved Fluorescence (HTRF)-based” for “Fluorescence-based”; format: functional
[12] = biological target: Nucleotide-binding oligomerization domain-containing protein 1 (Homo sapiens, UniProt Q9Y239); assay: NOD1 signaling inhibitors, SAR follow-up, revised (AID 2333); format: functional
HEK293 = assay: cells; settings: Homo sapiens;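 note: cells exposed to compound for 14 hours overnight before viability readout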
[13] = biological target: Nucleotide-binding oligomerization domain-containing protein 2 (Homo sapiens, UniProt Q9HC29); assay: PubChem AID 2334; format: functional
Tumor necrosis factor = Tumor necrosis factor (Homo sapiens, UniProt P01375); assay: TNFa-triggered NF-kB activation inhibitors, SAR follow-up, cell-based, revised (AID 2337); format: functional
[14] = biological target: Delta-type opioid receptor (Homo sapiens, UniProt P41143); assay: SAR Analysis of Agonists of the DOR Receptor using an Image-Based Assay - Set 3. [Related pubchem assays (depositor defined):AID1777, AID1786]; format: functional
[15] = biological target: T3, Kappa-type opioid receptor (Homo sapiens, UniProt P41145); assay: KOR agonist analogs, arrestin-GFP redistribution, SAR follow-up, imaging, image-based, set 3 (AID 488833); format: functional
[16] = biological target: T3, Kappa-type opioid receptor; assay: SAR analysis of small molecule agonists of the kappa opioid receptor via a luminescent beta-arrestin assay - Set 3. [Related pubchem assays (depositor defined):AID1777, AID1785, AID1786, AID1966, AID2133, AID2136, AID2284, AID2500]; format: functional
Mu-type opioid receptor = Mu-type opioid receptor (Homo sapiens, UniProt P35372); assay: SAR Analysis of Agonists of the MOR Receptor using an Image-Based Assay - Set 3. [Related pubchem assays (depositor defined):AID1777, AID1785, AID1786, AID1966, AID2133, AID2136, AID2284, AID2285, AID2352]; format: functional
[17] = biological target: T4, Tyrosine-protein phosphatase non-receptor type 22 (Homo sapiens, UniProt Q9Y2R2); format: functional
[18] = biological target: T5, Tyrosine-protein phosphatase non-receptor type 7 (Homo sapiens, UniProt P35236); format: functional
T5 sequence (P35236 whole entry): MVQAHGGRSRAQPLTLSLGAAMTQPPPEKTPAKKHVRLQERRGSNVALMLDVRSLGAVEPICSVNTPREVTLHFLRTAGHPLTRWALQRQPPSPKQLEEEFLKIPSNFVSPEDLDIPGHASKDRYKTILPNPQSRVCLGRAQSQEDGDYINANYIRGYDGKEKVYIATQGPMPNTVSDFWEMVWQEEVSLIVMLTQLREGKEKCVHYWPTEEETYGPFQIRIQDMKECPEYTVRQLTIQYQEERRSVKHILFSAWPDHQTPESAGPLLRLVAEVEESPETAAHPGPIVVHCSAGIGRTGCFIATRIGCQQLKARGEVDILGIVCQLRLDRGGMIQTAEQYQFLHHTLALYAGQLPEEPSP

[19] = biological target: T4, Tyrosine-protein phosphatase non-receptor type 22; format: functional; remark: listed apart in the source

T1 sequence (P98170 whole entry, the tested form may be a part): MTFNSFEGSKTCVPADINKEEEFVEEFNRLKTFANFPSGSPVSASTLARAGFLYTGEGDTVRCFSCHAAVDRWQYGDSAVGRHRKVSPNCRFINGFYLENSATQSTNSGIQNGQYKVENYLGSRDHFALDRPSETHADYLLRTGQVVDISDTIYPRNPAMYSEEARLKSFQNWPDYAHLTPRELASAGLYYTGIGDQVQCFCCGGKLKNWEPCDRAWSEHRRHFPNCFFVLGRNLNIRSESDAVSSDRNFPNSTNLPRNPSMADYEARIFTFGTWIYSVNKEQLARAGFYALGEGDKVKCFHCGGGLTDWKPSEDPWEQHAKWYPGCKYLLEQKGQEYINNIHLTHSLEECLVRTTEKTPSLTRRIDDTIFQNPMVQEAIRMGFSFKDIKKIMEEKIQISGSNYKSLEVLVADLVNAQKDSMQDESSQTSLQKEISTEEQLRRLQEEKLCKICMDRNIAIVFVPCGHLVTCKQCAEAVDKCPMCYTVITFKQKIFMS
T3 sequence (P41145 whole entry): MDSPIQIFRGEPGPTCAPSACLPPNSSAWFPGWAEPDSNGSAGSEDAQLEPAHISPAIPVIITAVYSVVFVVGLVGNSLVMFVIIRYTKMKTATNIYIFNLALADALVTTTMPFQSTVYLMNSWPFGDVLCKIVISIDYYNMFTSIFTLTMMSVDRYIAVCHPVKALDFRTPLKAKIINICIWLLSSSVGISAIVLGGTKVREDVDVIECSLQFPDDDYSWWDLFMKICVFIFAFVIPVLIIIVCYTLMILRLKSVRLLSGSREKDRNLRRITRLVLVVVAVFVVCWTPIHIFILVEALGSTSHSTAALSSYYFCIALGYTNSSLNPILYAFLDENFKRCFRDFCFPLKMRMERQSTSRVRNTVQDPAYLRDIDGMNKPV
T4 sequence (Q9Y2R2 whole entry): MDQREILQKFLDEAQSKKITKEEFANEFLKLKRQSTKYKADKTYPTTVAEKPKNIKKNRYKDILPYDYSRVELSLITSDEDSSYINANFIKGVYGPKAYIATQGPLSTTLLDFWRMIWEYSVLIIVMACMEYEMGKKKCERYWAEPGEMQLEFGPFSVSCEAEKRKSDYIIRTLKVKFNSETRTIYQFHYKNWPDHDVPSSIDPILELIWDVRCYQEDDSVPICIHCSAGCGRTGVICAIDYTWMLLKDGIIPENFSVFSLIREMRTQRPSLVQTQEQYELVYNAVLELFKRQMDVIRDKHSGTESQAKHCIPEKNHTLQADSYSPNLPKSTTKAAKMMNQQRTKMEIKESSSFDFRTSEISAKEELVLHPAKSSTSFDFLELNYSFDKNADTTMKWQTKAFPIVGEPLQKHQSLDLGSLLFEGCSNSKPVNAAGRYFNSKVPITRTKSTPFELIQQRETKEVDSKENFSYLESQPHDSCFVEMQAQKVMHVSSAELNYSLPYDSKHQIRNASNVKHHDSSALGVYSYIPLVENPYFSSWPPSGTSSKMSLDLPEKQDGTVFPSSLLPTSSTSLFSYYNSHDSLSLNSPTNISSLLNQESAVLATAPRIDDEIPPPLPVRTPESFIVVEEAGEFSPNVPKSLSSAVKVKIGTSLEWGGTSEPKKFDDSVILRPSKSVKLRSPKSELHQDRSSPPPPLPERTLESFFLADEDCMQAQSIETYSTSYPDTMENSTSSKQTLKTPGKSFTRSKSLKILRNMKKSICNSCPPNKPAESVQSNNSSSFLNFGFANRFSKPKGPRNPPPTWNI
T2 sequence (O43613 whole entry): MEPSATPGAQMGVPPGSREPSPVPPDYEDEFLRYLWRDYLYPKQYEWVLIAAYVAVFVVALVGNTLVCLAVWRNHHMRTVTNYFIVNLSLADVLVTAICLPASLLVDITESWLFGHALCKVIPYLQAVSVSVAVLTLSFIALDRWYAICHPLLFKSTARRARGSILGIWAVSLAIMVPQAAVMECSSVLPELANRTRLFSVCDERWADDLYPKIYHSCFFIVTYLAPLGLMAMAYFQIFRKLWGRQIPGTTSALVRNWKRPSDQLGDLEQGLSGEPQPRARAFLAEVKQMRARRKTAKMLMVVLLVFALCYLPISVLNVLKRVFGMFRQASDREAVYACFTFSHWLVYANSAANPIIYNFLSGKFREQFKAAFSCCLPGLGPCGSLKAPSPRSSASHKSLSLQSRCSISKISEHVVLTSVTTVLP
Nucleotide-binding oligomerization domain-containing protein 1, sequence (Q9Y239 whole entry, the tested form may be a part): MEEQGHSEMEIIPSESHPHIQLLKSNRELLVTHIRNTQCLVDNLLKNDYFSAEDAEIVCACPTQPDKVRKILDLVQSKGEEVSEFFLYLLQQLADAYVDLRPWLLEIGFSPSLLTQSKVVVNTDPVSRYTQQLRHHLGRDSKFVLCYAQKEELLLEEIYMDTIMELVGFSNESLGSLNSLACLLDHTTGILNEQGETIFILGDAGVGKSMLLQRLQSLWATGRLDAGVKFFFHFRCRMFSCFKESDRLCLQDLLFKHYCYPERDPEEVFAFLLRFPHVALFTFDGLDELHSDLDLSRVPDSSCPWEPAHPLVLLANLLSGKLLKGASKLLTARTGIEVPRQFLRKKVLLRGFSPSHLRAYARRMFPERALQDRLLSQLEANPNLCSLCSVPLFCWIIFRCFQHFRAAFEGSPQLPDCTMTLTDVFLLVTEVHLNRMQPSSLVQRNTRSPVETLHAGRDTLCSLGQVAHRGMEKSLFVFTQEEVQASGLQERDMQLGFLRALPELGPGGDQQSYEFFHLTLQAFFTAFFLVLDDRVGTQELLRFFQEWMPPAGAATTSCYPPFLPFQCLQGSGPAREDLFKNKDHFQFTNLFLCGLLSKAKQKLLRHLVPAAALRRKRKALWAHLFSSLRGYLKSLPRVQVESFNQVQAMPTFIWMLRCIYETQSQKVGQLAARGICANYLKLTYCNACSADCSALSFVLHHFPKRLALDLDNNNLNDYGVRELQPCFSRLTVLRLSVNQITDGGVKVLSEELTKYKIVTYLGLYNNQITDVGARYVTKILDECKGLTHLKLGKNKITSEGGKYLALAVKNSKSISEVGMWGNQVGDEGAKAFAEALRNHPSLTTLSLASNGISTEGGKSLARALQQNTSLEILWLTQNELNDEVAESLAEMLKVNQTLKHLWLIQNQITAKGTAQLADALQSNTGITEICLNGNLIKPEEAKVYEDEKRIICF
Tumor necrosis factor, sequence (P01375 whole entry): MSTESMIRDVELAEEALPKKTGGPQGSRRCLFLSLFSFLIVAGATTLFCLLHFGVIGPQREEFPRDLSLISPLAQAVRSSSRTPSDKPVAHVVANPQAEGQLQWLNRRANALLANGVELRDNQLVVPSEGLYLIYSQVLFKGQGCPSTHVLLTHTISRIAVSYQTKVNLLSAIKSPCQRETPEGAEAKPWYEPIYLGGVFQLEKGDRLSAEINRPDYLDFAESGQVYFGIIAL
Intestinal-type alkaline phosphatase, sequence (P09923 whole entry): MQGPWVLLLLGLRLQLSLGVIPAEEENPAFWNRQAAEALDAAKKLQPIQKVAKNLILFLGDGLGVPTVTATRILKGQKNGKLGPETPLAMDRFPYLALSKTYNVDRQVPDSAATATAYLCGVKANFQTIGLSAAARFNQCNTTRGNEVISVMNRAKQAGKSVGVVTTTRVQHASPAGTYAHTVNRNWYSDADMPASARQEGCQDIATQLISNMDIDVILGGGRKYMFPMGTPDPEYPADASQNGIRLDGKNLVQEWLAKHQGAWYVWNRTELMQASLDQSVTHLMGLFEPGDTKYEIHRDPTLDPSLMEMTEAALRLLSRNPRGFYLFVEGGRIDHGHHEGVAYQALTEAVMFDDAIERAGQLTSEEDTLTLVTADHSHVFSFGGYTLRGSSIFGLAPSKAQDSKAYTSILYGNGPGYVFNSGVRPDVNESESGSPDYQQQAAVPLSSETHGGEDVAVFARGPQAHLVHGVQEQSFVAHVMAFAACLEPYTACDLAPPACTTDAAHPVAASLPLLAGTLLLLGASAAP
Signal transducer and activator of transcription 1-alpha/beta, sequence (P42224 whole entry): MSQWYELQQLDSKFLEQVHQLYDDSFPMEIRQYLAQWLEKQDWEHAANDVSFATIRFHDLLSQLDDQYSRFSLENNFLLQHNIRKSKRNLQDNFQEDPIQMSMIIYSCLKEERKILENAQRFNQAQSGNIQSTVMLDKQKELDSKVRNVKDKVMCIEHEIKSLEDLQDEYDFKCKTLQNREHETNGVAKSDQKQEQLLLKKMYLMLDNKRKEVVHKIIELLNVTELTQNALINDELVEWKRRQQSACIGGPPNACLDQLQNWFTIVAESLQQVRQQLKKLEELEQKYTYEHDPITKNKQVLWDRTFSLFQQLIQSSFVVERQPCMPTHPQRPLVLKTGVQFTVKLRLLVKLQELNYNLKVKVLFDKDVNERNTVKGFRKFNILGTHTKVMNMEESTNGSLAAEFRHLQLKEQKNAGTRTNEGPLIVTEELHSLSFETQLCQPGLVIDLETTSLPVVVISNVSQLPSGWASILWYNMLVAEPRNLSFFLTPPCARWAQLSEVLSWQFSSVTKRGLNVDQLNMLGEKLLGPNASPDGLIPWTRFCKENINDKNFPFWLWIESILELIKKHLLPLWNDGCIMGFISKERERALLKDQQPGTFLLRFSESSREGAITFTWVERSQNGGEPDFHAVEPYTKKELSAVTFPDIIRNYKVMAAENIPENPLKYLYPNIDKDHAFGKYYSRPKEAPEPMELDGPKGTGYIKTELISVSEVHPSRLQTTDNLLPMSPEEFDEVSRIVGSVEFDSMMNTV
Mu-type opioid receptor, sequence (P35372 whole entry): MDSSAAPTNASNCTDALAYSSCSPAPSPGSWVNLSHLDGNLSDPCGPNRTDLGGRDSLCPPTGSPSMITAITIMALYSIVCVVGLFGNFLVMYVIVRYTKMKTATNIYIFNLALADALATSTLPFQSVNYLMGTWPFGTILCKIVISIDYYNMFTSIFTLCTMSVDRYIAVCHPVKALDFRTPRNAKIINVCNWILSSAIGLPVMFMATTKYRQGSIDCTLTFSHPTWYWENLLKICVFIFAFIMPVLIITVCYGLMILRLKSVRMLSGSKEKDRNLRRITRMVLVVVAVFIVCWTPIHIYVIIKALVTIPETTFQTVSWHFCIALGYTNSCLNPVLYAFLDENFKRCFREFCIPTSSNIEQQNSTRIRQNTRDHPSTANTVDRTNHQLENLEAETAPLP

CN[C@@H](C)C(=O)N[C@H](C(=O)N1CCC[C@H]1C(=O)Nc1ccc2[nH]ccc2c1)C(C)C
IC50 [1]: 2 µM (active) | IC50 [2]: 14.3 µM (active)

Cc1sc2ncnc(N3CCC(Cc4ccccc4)CC3)c2c1C
IC50 [3]: > 55.7 µM (inactive) | IC50 [4]: > 18.6 µM (inactive)

O=C(COc1ccc2ccccc2c1Br)N1CCCCC1
EC50 [5]: > 100 µM (inactive)

O=C(N/C(=C/c1cccc(Br)c1)c1nc(S)n[nH]1)c1ccccc1
EC50 [6]: 28.9 µM (active) | IC50 [7]: 33.3 µM (inactive) | IC50 [8]: 16.8 µM (inactive) | EC50 [9]: > 112 µM (not active) | IC50 (CHO-K1): > 66.2 µM (inactive) | EC50 [10]: > 100 µM (active) | IC50 [11]: > 66.2 µM (inactive)

Cc1ccc(C(=O)Nc2sc3c(c2C(=O)O)CCCC3)o1
IC50 [12]: > 20 µM (inactive) | IC50 (HEK293): > 20 µM (inactive) | IC50 [13]: > 20 µM (inactive) | IC50 (Tumor necrosis factor): > 20 µM (inactive)

Fc1cc(F)cc(CSc2nnc(-c3ccccn3)n2Cc2ccco2)c1
EC50 [14]: > 64 µM (inactive) | EC50 [15]: 20.6 µM (inactive) | EC50 [16]: 7.89 µM (active) | EC50 (Mu-type opioid receptor): > 32 µM (inactive)

Cc1cc(C)nc(NC(=O)c2cc(-c3ccc(C)s3)nc3ccccc23)c1
IC50 [17]: > 79.4 µM (inactive) | IC50 [18]: > 79.4 µM (inactive) | IC50 [19]: > 79.4 µM (inactive)
